This data set is described as follows: pKa of doravirine. The data set is classed as physicochemical.

Data on one compound can be found in US11077050B2, “Formulation for parenteral administration” (MERCK SHARP & DOHME CORP., priority 2017, dated 2021).

`Cn1c(Cn2ccc(C(F)(F)F)c(Oc3cc(Cl)cc(C#N)c3)c2=O)n[nH]c1=O` [Doravirine]: the pKa (in general, the pH at which an ionisable group is half protonated) turned out to be 9.47.
